Tested on: Candida albicans biofilms
Assay: Biofilm inhibitory activity by confocal laser scanning microscopy (SYTO 9 / PI staining)
Type: cell-based
Details: 5 minutes treatment, 1.2 mM each component
Method: Candida albicans biofilms were formed on a stainless-steel coupon. Specifically, the […] were immersed in 90% (v/v) ethanol for 30 minutes for decontamination of stainless-steel coupons (1.5×1.0 cm2) and washed with sterile distilled water. Then, stainless-steel coupons were placed in a 12-well tissue culture plate containing 4.95 mL of SDB enrichment medium, and 50 uL of the mixed suspensions of albicans were dispensed and cultured at 30° C. for 48 hours to form Candida albicans biofilms. After forming the biofilm on each coupon, weakly attached cells, not the biofilm, were separated using 0.85% sterile physiological saline.
The antifungal activity of the antimicrobial mixture of the present disclosure was confirmed through confocal laser scanning microscopy analysis. For the biofilms of Candida species treated with each antimicrobial mixture, intact cells were stained with green fluorescent SYTO®9 (S-34854, Molecular Probes™, Thermo Fisher Scientific Inc., Pittsburgh, PA, USA; final concentration: 6.7 μM; excitation: 488 nm, emission: 498/501 nm), and damaged cells were detected by staining with red fluorescent propidium iodide (PI; P3566, Molecular Probes™; final concentration: 15 μM; excitation: 555 nm, emission: 617 nm). […]

Compound: CC(O)CO (centres unmarked) [compound 2, propylene glycol]
- damage to the fungal cell membrane in the biofilms (SYTO 9 green / PI red fluorescence) (5° C., FIGS. 4A-4F): did not show significant damage to the fungal cell membrane
- damage to the fungal cell membrane in the biofilms (SYTO 9 green / PI red fluorescence) (22° C., FIGS. 5A-5F): did not show significant damage to the fungal cell membrane

From patent US12250946B2, “Antifungal composition having excellent antifungal activity even at low temperature” (Korea University Research and Business Foundation, priority 2020, dated 2025)
